Source: patent publication US20260224533A1, “CRYSTALLINE NANOPARTICLES COMPRISING ENZALUTAMIDE” (HELM PHARMACEUTICALS GMBH, priority 2023, published 2026)
Values after ≈ are worked out from the molar mass of the structure shown.

Columns and labels:
[1] = Kinetic solubility of Enzalutamide in simulated fluids; format: physicochemical; conditions: kinetic from dmso stock, 37° C.
Description: Preferably, the content of the amorphous nanosized Enzalutamide in the slurry or suspension is at least 10 times higher, more preferably at least 50 times, still more preferably at least 100 times higher, even more preferably at least 500 times higher than its solubility in the liquid, preferably aqueous solution, comprising the one or more polymers and/or copolymers to form the suspension or the slurry. Accordingly, the amount of Enzalutamide amorphous nanoparticles provided in step (a) that is needed depends on its solubility. The solubility can be measured by any method known in the art. […] A decent slurry can thus be produced when the slurry or suspension comprises e.g. 5 mg of the amorphous nanoparticles provided in step (a) in 1 mL of the slurry or suspension.

[2] = cited from earlier work

Structure (SMILES): CNC(=O)c1ccc(N2C(=S)N(c3ccc(C#N)c(C(F)(F)F)c3)C(=O)C2(C)C)cc1F [Enzalutamide]
- solubility kinetic ([1]; Fasted State Simulated Intestinal Fluid (FaSSIF)): ~74 µg/mL (≈ 159 µM)
- solubility kinetic ([1]; Simulated Gastric Fluid (SGF)): ~50 µg/mL (≈ 108 µM)
- solubility in water [2]: insoluble
